Experimental data as given in article PMC12224939, “Trypstatin as a Novel TMPRSS2 Inhibitor with Broad‐Spectrum Efficacy against Corona and Influenza Viruses” (Advanced Science, 2025).
Counter-ions that a name gives are not always drawn. Like-named read-outs stand apart in the source and are kept apart here. Bridge positions count the residues as written; N and C are the ends. Ends that are not written are not given here.

Experiments:
[1] = system: lentiviral pseudoparticles harboring the SARS-CoV-2 Hu-1 spike
[2] = system: lentiviral pseudoparticles harboring the SARS-CoV-2 Hu-1 spike; experiment: microbe, parasite or virus in culture; settings: Severe acute respiratory syndrome coronavirus 2, Caco-2, 48 h, read-out: IC50, SARS-CoV-2 spike-driven pseudoparticle entry, Caco-2 cells, Hu-1 spike, luciferase 48 h after transduction
SARS-CoV-2 B.1 D614G = settings: read-out: anti-viral IC50 (±SEM), SARS-CoV-2 B.1
[3] = read-out: IC50, SARS-CoV-2 spike-driven pseudoparticle entry, Caco-2 cells, luciferase 48 h after transduction

Row | Molecule | IC50 [1, 3] | also measured
1 | CNLPIVRGPCRAFIQLWAFDAVKGKCVLFPYGGCQGNGNKFYSEKECREYC (disulfide 1-51, 10-34, 26-47) [Bikunin KD 2] | 170 ± 20 nM | –
2 | CC(=O)NCC(=O)N[C@@H](CCC(N)=O)C(=O)N[C@@H](Cc1ccccc1)C(=O)N[C@@H](CCCN=C(N)N)C(=O)c1nc2ccccc2s1 [MM3122, reference compound] | 31.2 ± 3 nM | –
3 | N=C(N)c1ccc2cc(OC(=O)c3ccc(N=C(N)N)cc3)ccc2c1 [Nafamostat mesylate] | – | IC50 [2]: 14.4 ± 1 nM
4 | Aprotinin | 427 ± 30 nM | –
5 | Antitrypsin | – | IC50 ([1]; read-out: IC50, SARS-CoV-2 spike-driven pseudoparticle entry, Caco-2 cells, luciferase 48 h after transduction, listed as α‐1‐antitrypsin): 27400 ± 4100 nM
6 | CN(C)C(=O)COC(=O)Cc1ccc(OC(=O)c2ccc(NC(=N)N)cc2)cc1 [Camostat mesylate] | – | IC50 (SARS-CoV-2 B.1 D614G): 4.1 ± 2 nM; IC50 [2]: 93.8 ± 6 nM
7 | Bikunin (protein, UniProt P02760 206-352, looked up, Inter-alpha-trypsin inhibitor light chain) Inter-alpha-trypsin inhibitor …: AVLPQEEEGSGGGQLVTEVTKKEDSCQLGYSAGPCMGMTSRYFYNGTSMACETFQYGGCMGNGNNFVTEKECLQTCRTVAACNLPIVRGPCRAFIQLWAFDAVKGKCVLFPYGGCQGNGNKFYSEKECREYCGVPGDGDEELLRFSN | 6100 ± 1200 nM | –
